In patent US20250000948A1, “SOLID COMPOSITIONS COMPRISING A PEPTIDE OR A PROTEIN AND AN ACYLATED AMINO ACID” (ADOCIA, priority 2021, published 2025):

Legend:
Caco-2 monolayers = type: in vitro ADME
Description: An in vitro permeability assay was conducted in order to evaluate the impact of NaPheC8 on the passage of peptides through a monolayer of intestinal epithelial cells. Caco-2 cells were seeded on a polycarbonate membrane that separate basal and apical compartments of a Transwell system and cultured for 21-days.
Insulin lispro and semaglutide formulations (100 μM) were added into the apical compartment of the culture system in presence or absence of different concentrations of NaPheC8.
In vitro absorption of peptides was estimated by quantifying insulin lispro or semaglutide in the basal compartment 1 hour after the addition of formulations (quantification by ELISA).
Peptide permeability in the presence of NaPheC8, expressed as a fold-increase compared to the treatment with the peptide alone, is reported in the table below: […]

[1] = Solubilization kinetics of compacts, USP <711> paddle apparatus (Example B1); type: physicochemical; settings: 200 mM phosphate buffer pH 6.8, 37° C., 75 rpm
Description: To evaluate solubilization kinetics of NaPheC6 and NaPheC8 in similar conditions, compacts are prepared in the following manner:
In a manual tablet press (LFA TDP 0 Desktop tablet press) equipped with cylindrical 8 mm diameter punches, 200 +10 mg of permeation enhancer is filled into the die cavity. Compression into cylindrical compacts of 4±0.5 mm height yields compacts with apparent volumetric mass of 1±0.2 g/mL.
These compacts are put into a capsule sinker, then dissolved using an USP <711>-compliant apparatus (type 2-Paddle apparatus). Dissolution is done into 700 mL of 200 mM phosphate buffer, pH 6.8. Temperature is set at 37° C. and agitation at 75 rpm.
Sampling of the dissolution medium followed by HPLC dosage yields the following dissolution profiles for the compounds NaPheC6 and NaPheC8, respectively: […]

Structure (SMILES)	effect on passage of peptides through Caco-2 monolayers (in words) (Caco-2 monolayers)	dissolved (%) ([1]; 20 seconds)	dissolved (%) ([1]; 40 seconds)	dissolved (%) ([1]; 60 seconds)	dissolved (%) ([1]; 80 seconds)	dissolved (%) ([1]; 100 seconds)
CCCCCCCC(=O)N[C@@H](Cc1ccccc1)C(=O)[O-].[Na+] [NaPheC8, sodium salt of N-octanoyl phenylalanine]	favors the passage of these peptides through Caco-2 monolayers, in a dose-dependant manner	15%	37%	57%	89%	99%
CCCCCC(=O)N[C@@H](Cc1ccccc1)C(=O)O [NaPheC6, N-hexanoyl-Phenylalanine]	–	47%	100%	100%	100%	100%
